Laboratory results from US10092493B2, “Composition of skin external application for anti-aging” (AMOREPACIFIC CORPORATION, priority 2005, dated 2018).

Assays:
MMP-2 = test: Inhibition of MMP-2 biosynthesis after UV irradiation (gelatin zymography); type: cell-based; conditions: human keratinocytes, UV-B 30 mJ/cm^2, 10 ppm test substance, 2 days; UV control = 100
Protocol: (§1) After 24 hours, the plate was irradiated by UV-B at 30 mJ/cm^2. The media were exchanged with new medium containing 10 ppm of each test substance. After 2 days of cultivation, each supernatant was harvested and subjected to the zymography using gelatine gel to obtain produced MMP-2 and MMP-9, quantities of which were then measured by a densitometer.

MMP-9 = test: Inhibition of MMP-9 biosynthesis after UV irradiation (gelatin zymography); type: cell-based; conditions: human keratinocytes, UV-B 30 mJ/cm^2, 10 ppm test substance, 2 days; UV control = 100
Protocol: as §1

type IV collagen = test: Biosynthesis of type IV collagen in keratinocytes (Dot Blot); type: cell-based; conditions: human keratinocytes, 10 ppm, 24 hours; control = 100
Protocol: The media were exchanged with new medium containing 10 ppm of each test substance. After 24 hours of cultivation, each supernatant was harvested and subjected to the Dot Blot method to measure the amount of produced type IV collagen.

type VII collagen = test: Biosynthesis of type VII collagen in fibroblasts (Dot Blot); type: cell-based; conditions: human fibroblasts, 10 ppm, 24 hours; control = 100
Protocol: The media were exchanged with new medium containing 10 ppm of each test substance. After 24 hours of cultivation, each supernatant was harvested and subjected to the Dot Blot method to measure the amount of produced type VII collagen.

laminin 10/11 = test: Biosynthesis of laminin 10/11 in keratinocytes (Western Blot); type: cell-based; conditions: human keratinocytes, 10 ppm, 24 hours; control = 100
Protocol: Human keratinocytes were cultured in a 24-well plate type incubator at a concentration of 5×10^4. The media were exchanged with new medium containing 10 ppm of each test substance. After 24 hours of cultivation, each supernatant was harvested and subjected to the Western Blot method to measure the amount of produced laminin 10/11.

pro-collagen = test: Biosynthesis of collagen (pro-collagen ELISA) in fibroblasts; type: cell-based, Human; conditions: 48 hours, un-treated control = 100
Protocol: Human fibroblasts were cultured in a 48-well plate type incubator at a concentration of 10^4. The media were exchanged with new medium (theanine: 1, 10, 100 um) containing each test substance of Table 7 at a concentration of 0.001 μM, 0.01 μM, 0.1 μM, 0.5 μM and 2 μM. After 48 hours of cultivation, each supernatant was harvested and subjected to ELISA (Takara MK101) to measure the amount of produced pro-collagen.
Also, in order to examine the synergic effect of theanine on collagen biosynthesis, theanine 10 μM was added to catechin at different 4 concentrations and the result is shown in Table 8.

[1] = target: T1, PPAR-α (Peroxisome Proliferator Activated Receptor-alpha) (Homo sapiens, UniProt Q07869); test: Activation of PPAR-α, luciferase reporter in CV-1 cells; type: cell-based; conditions: 24 hours, negative control and non-treated group = 1.0
T1 construct: expressed in transfected cells; host or cells: CV-1 monkey kidney epithelial cells (ATCC CCL 70)
T1 sequence (Q07869 1-468): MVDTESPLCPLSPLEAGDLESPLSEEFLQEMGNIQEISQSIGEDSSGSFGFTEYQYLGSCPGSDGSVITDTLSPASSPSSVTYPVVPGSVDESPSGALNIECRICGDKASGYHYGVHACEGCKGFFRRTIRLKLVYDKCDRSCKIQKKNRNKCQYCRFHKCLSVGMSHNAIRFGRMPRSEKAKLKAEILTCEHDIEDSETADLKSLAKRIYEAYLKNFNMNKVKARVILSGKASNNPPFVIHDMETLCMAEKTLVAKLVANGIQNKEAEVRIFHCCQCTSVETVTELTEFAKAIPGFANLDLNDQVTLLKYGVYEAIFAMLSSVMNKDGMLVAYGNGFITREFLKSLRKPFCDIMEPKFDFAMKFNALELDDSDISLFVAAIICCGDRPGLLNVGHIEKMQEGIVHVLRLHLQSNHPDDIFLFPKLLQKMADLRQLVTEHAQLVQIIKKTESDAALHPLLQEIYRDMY
Protocol: Monkey kidney epithelial cell line CV-1 (ATCC CCL 70) was subcultured in a DMEM medium containing 10% fetal bovine serum treated with charcol/dextran, which was a phenol red-free medium to remove the effect by estrogen of phenol red.
CV-1 cells were distributed in a 24-well plate type incubator at a concentration of 5×10^4. After 24 hours cultivation, the 3 different plasmids were transient transfected. After 24 hours cultivation, the plate was washed with 1×PBS (Phosphate Buffered Saline) and treated with ligand candidates at various concentrations. After 24 hours cultivation, the plate was washed with 1×PBS and the cells were lyzed with 1×PLB (Passive Lysis Buffer) and measured for luciferase activity using Dual-Luciferase® Reporter Assay System kit.

[2] = system: Tumor Necrosis Factor alpha (TNF-α); test: Inhibition of TNF-α biosynthesis after UV irradiation (ELISA); type: cell-based; conditions: human keratinocytes, UV-B 30 mJ/cm^2, 10 μM (10 ppm of extract), 6 to 24 hours; UV control = 100
Protocol: Human keratinocytes were cultured in a 12-well plate type incubator at a concentration of 10^4. The plate was irradiated by UV-B at 30 mJ/cm^2. The media were exchanged with new medium containing 10 μM of each test substance (10 ppm of extract). After 6 to 24 hours of cultivation, the cells were harvested and subjected to ELISA (Pharmingen 555212) to determine the amount of produced tumor necrosis factor α (TNF-α). As the positive control, Wy-14,643 was used.

[3] = system: Type I Collagenase (MMP-1); test: Inhibition of type I collagenase (MMP-1) biosynthesis after UV-A irradiation, test substances (ELISA); type: cell-based; conditions: new born human fibroblasts, UV-A 15 J/cm^2, 10 μM or 10 ppm, UV negative control = 100; for Type I collagenase biosynthesis (%), UV-A + TNF-α treated group: plus TNF-α 10 ng/ml
Protocol: To describe the experiment method in detail, human fibroblasts isolated from the skin of a new born baby were cultured in a 48-well plate type incubator at a concentration of 10^4. After 24 hours, the plate was irradiated by UV-A at 15 J/cm^2. […] At the second day of cultivation, the supernatants were harvested and subjected to ELISA (AP biotech RPN2610) to determine the amount of produced type I collagenase. As the positive control, Wy-14,643 and retinoic acid (RA) were used.

[4] = system: Type I Collagenase (MMP-1); test: Type I collagenase (MMP-1) biosynthesis with UV-A, TNF-α and antibody against TNF-α (ELISA); type: cell-based, Human
Protocol: Human fibroblasts isolated from the skin of new born baby were cultured in a 48-well plate type incubator at a concentration of 10^4. after 24 hours, the plate was irradiated by UV-A at 15 J/cm^2 and antibody against tumor necrosis factor alpha was added thereto in a concentration of 1 ug/ml. At the second day of cultivation, the supernatants were harvested and subjected to ELISA (AP biotech RPN2610) to determine the amount of produced type I collagenase. The result is shown in Table 15 as comparative values, referred to 100 of control which was not treated.

`O=C(O[C@@H]1Cc2c(O)cc(O)cc2O[C@@H]1c1cc(O)c(O)c(O)c1)c1cc(O)c(O)c(O)c1` [EGCG, epigallocatechin gallate] was tested, and the “MMP-2 (%)” value (MMP-2) was 52%, the “MMP-9 (%)” value (MMP-9) was 56% and the “Type IV collagen biosynthesis (%)” value (type IV collagen) was 138%. The “type VII collagen biosynthesis (%)” value (type VII collagen) was 127%, the “laminin 10/11 biosynthesis (%)” value (laminin 10/11) was 137% and the Collagen biosynthesis (pro-collagen; 0.001 μM) was 101.4. For the same molecule, the Collagen biosynthesis (pro-collagen; 0.01 μM) was 154.6, the Collagen biosynthesis (pro-collagen; 0.1 μM) was 133.8 and the Collagen biosynthesis (pro-collagen; 0.5 μM) was 155.8. For the same molecule, the Collagen biosynthesis (pro-collagen; 2 μM) was 78.4, the PPAR-α activity ([1]; 10 μM) was 1.0 and the PPAR-α activity ([1]; 100 μM) was 1.5. The “TNF-α biosynthesis (%)” value [2] was 35%, the “Type I collagenase biosynthesis (%), UV-A + TNF-α treated group” value [3] was 88% and the “Type I collagenase biosynthesis (%), UV-A irradiated group” value [3] was 42%.
TNF-α was tested, and the “type I collagenase, UV-A irradiated group, column headed TNF-α treated group” value ([4]; UV-A 15 J/cm^2, antibody against TNF-α 1 ug/ml, untreated control = 100 (UV-A without antibody 210)) was 134 and the “type I collagenase, TNF-α treated group, No-Antibody treated group” value ([4]; new born human fibroblasts, untreated control = 100) was 250.
In the case of `O=C(O[C@@H]1Cc2c(O)cc(O)cc2O[C@H]1c1cc(O)c(O)c(O)c1)c1cc(O)c(O)c(O)c1` [GCG, gallocatechin gallate], the “MMP-2 (%)” value (MMP-2) was 53%, the “MMP-9 (%)” value (MMP-9) was 56% and the “Type IV collagen biosynthesis (%)” value (type IV collagen) was 135%. For the same molecule, the “type VII collagen biosynthesis (%)” value (type VII collagen) was 121%, the “laminin 10/11 biosynthesis (%)” value (laminin 10/11) was 131% and the Collagen biosynthesis (pro-collagen; 0.001 μM) was 98.9. The Collagen biosynthesis (pro-collagen; 0.01 μM) was 138.3, the Collagen biosynthesis (pro-collagen; 0.1 μM) was 147.0 and the Collagen biosynthesis (pro-collagen; 0.5 μM) was 157.1. The Collagen biosynthesis (pro-collagen; 2 μM) was 75.2, the PPAR-α activity ([1]; 100 μM) was 2.3 and the “TNF-α biosynthesis (%)” value [2] was 27%. The “Type I collagenase biosynthesis (%), UV-A + TNF-α treated group” value [3] was 86% and the “Type I collagenase biosynthesis (%), UV-A irradiated group” value [3] was 43%.
